The text below walks through data of patent US11524966B1 (Valo Early Discovery, Inc., priority 2017, dated 2022).

In general, IC50 refers to the point on the concentration scale where inhibition reaches its midpoint.

Structures are written as SMILES.

This experiment deals with T1, USP25 (USP25-His6, Boston Biochem E-546) (Homo sapiens, UniProt Q9UHP3).
T1 construct: His6; purchased Boston Biochem E-546
T1 sequence (Q9UHP3 1-1055): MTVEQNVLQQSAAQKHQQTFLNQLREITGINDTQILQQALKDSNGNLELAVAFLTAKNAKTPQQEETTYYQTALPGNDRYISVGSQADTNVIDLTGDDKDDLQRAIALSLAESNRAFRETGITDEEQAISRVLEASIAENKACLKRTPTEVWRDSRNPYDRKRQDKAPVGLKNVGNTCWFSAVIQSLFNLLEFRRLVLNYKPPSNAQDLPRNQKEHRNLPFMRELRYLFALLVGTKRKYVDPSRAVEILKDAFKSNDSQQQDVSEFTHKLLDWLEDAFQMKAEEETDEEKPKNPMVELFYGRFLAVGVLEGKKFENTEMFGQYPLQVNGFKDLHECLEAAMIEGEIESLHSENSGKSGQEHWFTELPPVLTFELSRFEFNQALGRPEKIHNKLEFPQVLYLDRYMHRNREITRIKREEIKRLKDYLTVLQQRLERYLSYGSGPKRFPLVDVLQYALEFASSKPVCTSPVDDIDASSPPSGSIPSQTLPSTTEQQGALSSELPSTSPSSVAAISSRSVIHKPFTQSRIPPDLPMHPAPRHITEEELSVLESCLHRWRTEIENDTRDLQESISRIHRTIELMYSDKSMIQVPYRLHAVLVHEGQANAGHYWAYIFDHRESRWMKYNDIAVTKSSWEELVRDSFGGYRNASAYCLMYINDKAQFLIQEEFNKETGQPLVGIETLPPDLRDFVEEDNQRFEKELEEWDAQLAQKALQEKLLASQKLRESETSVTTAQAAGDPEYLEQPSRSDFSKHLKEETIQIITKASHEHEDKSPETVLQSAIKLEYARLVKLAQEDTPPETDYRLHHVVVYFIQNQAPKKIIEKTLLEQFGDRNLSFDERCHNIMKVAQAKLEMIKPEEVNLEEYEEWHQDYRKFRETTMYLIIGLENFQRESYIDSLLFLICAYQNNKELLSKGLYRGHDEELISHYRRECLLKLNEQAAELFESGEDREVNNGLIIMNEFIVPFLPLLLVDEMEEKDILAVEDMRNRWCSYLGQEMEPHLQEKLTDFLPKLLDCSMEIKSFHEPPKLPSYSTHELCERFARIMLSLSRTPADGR
Kind of experiment: Ubiquitin-Rhodamine 110 Assay for USP25 Activity, Example A-2. The experiment is classed as biochemical. The conditions noted are these: Ubiquitin-Rhodamine 110 assay, Example A-2; read-out: USP25 A-2 IC50 range. Put shortly:
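USP25-His6 (75 pM) was preincubated with compound (10-point, 3-fold series, 25 μM to 1.3 nM) for 30 min in 20 mM Tris-HCl pH 8.0, 3 mM BME, 0.03% BGG, 0.01% Triton X-100. Ub-Rh110 (25 nM, <<Km) was then added for 45 min at room temperature, citric acid-stopped, and fluorescence read at 485/535 nm.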

As for `COC[C@H]1CN(c2ccc3c(c2)OC[C@H](NC(=O)c2sc4nc(C)ccc4c2N)C3)C[C@H]1N` [Example 162, 3-amino-N-[(3R)-7-[(3S,4S)-3-amino-4-(methoxymethyl)pyrrolidin-1-yl]-3,4-dihydro-2H-1-benzopyran-3-yl]-6-methylthieno[2,3-b]pyridine-2-carboxamide], the IC50 fell in the range of 50 to 200 nM.

For `COC[C@@H]1CN(c2ccc3c(c2)OC[C@H](NC(=O)c2sc4nc(C)ccc4c2N)C3)C[C@H]1N` [Example 163, 3-amino-N-[(3R)-7-[(3S,4R)-3-amino-4-(methoxymethyl)pyrrolidin-1-yl]-3,4-dihydro-2H-1-benzopyran-3-yl]-6-methylthieno[2,3-b]pyridine-2-carboxamide], the IC50 lay within 200 to 2000 nM. As for `COC[C@H]1CN(c2ccc3c(c2)OC[C@H](NC(=O)c2sc4nc(C)ccc4c2N)C3)C[C@@H]1N` [Example 164, 3-amino-N-[(3R)-7-[(3R,4S)-3-amino-4-(methoxymethyl)pyrrolidin-1-yl]-3,4-dihydro-2H-1-benzopyran-3-yl]-6-methylthieno[2,3-b]pyridine-2-carboxamide], the figure is 200 to 2000 nM; as for `Cc1ccc2c(N)c(C(=O)N[C@H]3COc4cc(N5CC[C@@H]6CNC[C@@H]65)ccc4C3)sc2n1` [Example 165, N-[(3R)-7-[(3aR,6aR)-octahydropyrrolo[2,3-c]pyrrol-1-yl]-3,4-dihydro-2H-1-benzopyran-3-yl]-3-amino-6-methylthieno[2,3-b]pyridine-2-carboxamide], 50 to 200 nM. As for `Cc1ccc2c(N)c(C(=O)N[C@H]3COc4cc(N5CC[C@H]6CNC[C@H]65)ccc4C3)sc2n1` [Example 166, N-[(3R)-7-[(3aS,6aS)-octahydropyrrolo[2,3-c]pyrrol-1-yl]-3,4-dihydro-2H-1-benzopyran-3-yl]-3-amino-6-methylthieno[2,3-b]pyridine-2-carboxamide], the figure is 50 to 200 nM; as for `Cc1ccc2c(N)c(C(=O)N[C@H]3COc4cc(N5C[C@H](N)[C@H](C(F)F)C5)ccc4C3)sc2n1` [Example 167, 3-amino-N-[(3R)-7-[(3R,4R)-3-amino-4-(difluoromethyl)pyrrolidin-1-yl]-3,4-dihydro-2H-1-benzopyran-3-yl]-6-methylthieno[2,3-b]pyridine-2-carboxamide], 200 to 2000 nM; as for `Cc1ccc2c(N)c(C(=O)N[C@H]3COc4cc(N5C[C@@H](N)[C@@H](C(F)F)C5)ccc4C3)sc2n1` [Example 168, 3-amino-N-[(3R)-7-[(3S,4S)-3-amino-4-(difluoromethyl)pyrrolidin-1-yl]-3,4-dihydro-2H-1-benzopyran-3-yl]-6-methylthieno[2,3-b]pyridine-2-carboxamide], 200 to 2000 nM. As for `Cc1ccc2c(N)c(C(=O)N[C@H]3COc4cc(N5CC6CCC(C5)N6)cc(F)c4C3)oc2n1` [Example 170, 3-amino-N-[(3R)-7-{3,8-diazabicyclo[3.2.1]octan-3-yl}-5-fluoro-3,4-dihydro-2H-1-benzopyran-3-yl]-6-methylfuro[2,3-b]pyridine-2-carboxamide], the figure is greater than 2000 nM; as for `Cc1ccc2c(N)c(C(=O)N[C@H]3CCc4cc(N5CC6CCC(C5)N6)ccc4C3)oc2n1` [Example 171, 3-amino-N-[(2S)-6-{3,8-diazabicyclo[3.2.1]octan-3-yl]-1,2,3,4-tetrahydronaphthalen-2-yl]-6-methylfuro[2,3-b]pyridine-2-carboxamide], greater than 2000 nM.

Regarding `Cc1ccc2c(N)c(C(=O)N[C@H]3COc4c(F)c(N5CC6CCC(C5)N6)cc(F)c4C3)oc2n1` [Example 172, 3-amino-N-[(3R)-7-{3,8-diazabicyclo[3.2.1]octan-3-yl}-5,8-difluoro-3,4-dihydro-2H-1-benzopyran-3-yl]-6-methylfuro[2,3-b]pyridine-2-carboxamide], the IC50 is greater than 2000 nM. As for `Cc1ccc2c(N)c(C(=O)N[C@H]3COc4nc(N5CC6CCC(C5)N6)ccc4C3)sc2n1` [Example 173, 3-amino-N-[(3R)-7-{3,8-diazabicyclo[3.2.1]octan-3-yl]-2H,3H,4H-pyrano[2,3-b]pyridin-3-yl]-6-methylthieno[2,3-b]pyridine-2-carboxamide], the figure is 200 to 2000 nM; as for `CO[C@H]1CN(c2cc(F)c3c(c2C#N)OC[C@H](NC(=O)c2sc4nc(C)cnc4c2N)C3)C[C@@H]1N` [Example 174, 7-amino-N-[(3R)-7-[(3S,4S)-3-amino-4-methoxypyrrolidin-1-yl]-8-cyano-5-fluoro-3,4-dihydro-2H-1-benzopyran-3-yl]-3-methylthieno[2,3-b]pyrazine-6-carboxamide], greater than 2000 nM; as for `CO[C@H]1CN(c2cc(F)c3c(c2C#N)OC[C@H](NC(=O)c2sc4nc(C)ccc4c2N)C3)C[C@@H]1N` [Example 175, 3-amino-N-[(3R)-7-[(3S,4S)-3-amino-4-methoxypyrrolidin-1-yl]-8-cyano-5-fluoro-3,4-dihydro-2H-1-benzopyran-3-yl]-6-methylthieno[2,3-b]pyridine-2-carboxamide], greater than 2000 nM.

In the case of `CO[C@H]1CN(c2cc3c(cc2C#N)C[C@@H](NC(=O)c2sc4nc(C)cnc4c2N)CO3)C[C@@H]1N` [Example 176, 7-amino-N-[(3R)-7-[(3S,4S)-3-amino-4-methoxypyrrolidin-1-yl]-6-cyano-3,4-dihydro-2H-1-benzopyran-3-yl]-3-methylthieno[2,3-b]pyrazine-6-carboxamide], the concentration for half-maximal inhibition (IC50) was 50 to 200 nM.
